Test results: patent US7166611B2, “Pharmaceutical compositions having appetite suppressant activity” (priority 1997, dated 2007)

Legend:
Format in all cases: in vivo, rat
male Wistar rats [1] = assay: Example 44 single oral dose study: food consumption
Experimental: (§1) Sample 1 to 3 were each administered as a single oral dose to male Wistar rats. Two additional control groups received vehicle (distilled water or DMSO). Orally administered fenfluramine (7.5 mg/kg) was included as a reference standard.
(§2) Fifty-five male Wistar rats were used for the study.
(§3) Bodyweights, food consumption (food hopper weight) and water consumption (bottle weight) were recorded daily at the same time each day from the day of arrival until the termination of the study.
(§4) On Day 1, the rats received a single oral (gavage) dose according to the following table:
(§5) Groups 1–8 were dosed using a constant dose volume of 10 ml/kg and groups 9–12 were dosed using a dose volume of 1 ml/kg.
(§6) Food and water consumption were also measured at […] after dosing on Day 1.
(§7) The post-dose food and water consumption measurements and bodyweights at each time-point for the P57-treated animals were compared with those for the relevant, similarly-treated vehicle control group using analysis of variance followed by Williams' test for comparisons with controls.
(§8) The data for the fenfluramine-treated animals was compared with that for the vehicle-treated control group using Student's t test.

male Wistar rats [2] = assay: Example 44 single oral dose study: liver histopathology
Description: Following the measurements of Day 8, the animals were killed by carbon dioxide asphyxiation, and the livers excised and placed in 10% buffered formalin, prior to histology.
Paraffin wax sections of each liver were taken at 4–5 μm and stained with haematoxylin and eosin. Additional sections were cut on a cryostat at 12 μm and stained for fat with Oil Red O (ORO).
Histological examination was restricted to the liver.

[3] = Example 44 single oral dose study: bodyweight
Experimental: as §1, §2, §3, §4, §5, §7, §8

male Wistar rats [4] = assay: Example 44 single oral dose study: water consumption
Experimental: as §1, §2, §3, §4, §5, §6, §7, §8

[5] = pre-dose data, before treatment, table rows = later dose groups
[6] = Group 11, 7.5 mg/kg, 3 examined
[7] = 7.5 mg/kg single oral dose on Day 1

CCNC(C)Cc1cccc(C(F)(F)F)c1 (centres unmarked) [Fenfluramine, reference compound]
Group mean food consumption (g ± sd) between Days: 1–2 (male Wistar rats [1]; 7.5 mg/kg single oral dose): 22.4 ± 3.19 g
Group mean food consumption (g ± sd) between Days: 2–3 (male Wistar rats [1]; 7.5 mg/kg single oral dose): 31.9 ± 0.84 g
Group mean food consumption (g ± sd) between Days: 3–4 (male Wistar rats [1]; 7.5 mg/kg single oral dose): 32.7 ± 2.50 g
Group mean food consumption (g ± sd) between Days: 4–5 (male Wistar rats [1]; 7.5 mg/kg single oral dose): 33.0 ± 2.55 g
Group mean food consumption (g ± sd) between Days: 5–6 (male Wistar rats [1]; 7.5 mg/kg single oral dose): 30.4 ± 0.23 g
Group mean food consumption (g ± sd) between Days: 6–7 (male Wistar rats [1]; 7.5 mg/kg single oral dose): 32.7 ± 1.90 g
Group mean food consumption (g ± sd) between Days: 7–8 (male Wistar rats [1]; 7.5 mg/kg single oral dose): 32.4 ± 1.60 g
food consumption at 6 and 24 hours post-dose versus vehicle-treated control group (male Wistar rats [1]; 7.5 mg/kg single oral dose): statistically significant reductions in food consumption
Group mean food consumption (g ± sd) between Days: −2–−1 (male Wistar rats [1]; [5]): 29.7 ± 2.84 g
Group mean food consumption (g ± sd) between Days: −3–−2 (male Wistar rats [1]; [5]): 30.8 ± 0.54 g
Group mean food consumption (g ± sd) between Days: −4–−3 (male Wistar rats [1]; [5]): 27.0 ± 1.53 g
Group mean food consumption (g ± sd) between Days: −5–−4 (male Wistar rats [1]; [5]): 25.3 ± 4.03 g
Group mean food consumption (g ± sd) between Days: −6–−5 (male Wistar rats [1]; [5]): 29.1 ± 0.66 g
Liver (ORO stain): Hepatocyte fat - centrilobular(Total) (male Wistar rats [2]; [6]): 1
Liver (ORO stain): Hepatocyte fat - centrilobular, Minimal (male Wistar rats [2]; [6]): 1
Liver (ORO stain): No abnormalities detected (male Wistar rats [2]; [6]): 2
Liver: Hepatocyte necrosis - focal (Total) (male Wistar rats [2]; [6]): 0
Liver: Hepatocyte necrosis - focal, Minimal (male Wistar rats [2]; [6]): 0
Liver: No abnormalities detected (incidence) (male Wistar rats [2]; [6]): 0
Liver: Parenchymal inflammatory cell foci (Total) (male Wistar rats [2]; [6]): 0
Liver: Parenchymal inflammatory cell foci, Minimal (male Wistar rats [2]; [6]): 0
Liver: Portal leucocytes (Total) (male Wistar rats [2]; [6]): 0
Liver: Portal leucocytes, Minimal (male Wistar rats [2]; [6]): 0
Liver: Portal lymphoid infiltration (Total) (male Wistar rats [2]; [6]): 3
Liver: Portal lymphoid infiltration, Minimal (male Wistar rats [2]; [6]): 3
histological examination of the liver (male Wistar rats [2]; all doses tested, single oral dose, livers taken Day 8): No treatment-related changes were detected
effects on bodyweight ([3]; 7.5 mg/kg single oral dose): No statistically significant effects
Group mean bodyweight (g ± sd) on Day: 2 [3, 7]: 190.3 ± 10.97 g
Group mean bodyweight (g ± sd) on Day: 3 [3, 7]: 197.7 ± 7.37 g
Group mean bodyweight (g ± sd) on Day: 4 [3, 7]: 207.7 ± 7.23 g
Group mean bodyweight (g ± sd) on Day: 5 [3, 7]: 217.7 ± 10.69 g
Group mean bodyweight (g ± sd) on Day: 6 [3, 7]: 224.3 ± 10.12 g
Group mean bodyweight (g ± sd) on Day: 7 [3, 7]: 234.3 ± 12.70 g
Group mean bodyweight (g ± sd) on Day: 8 [3, 7]: 243.3 ± 9.24 g
Group mean bodyweight (g ± sd) on Day: Pre-dose (1) ([3]; Day 1 before dosing): 190.3 ± 9.71 g
Group mean bodyweight (g ± sd) on Day: −1 [3, 5]: 182.8 ± 10.21 g
Group mean bodyweight (g ± sd) on Day: −2 [3, 5]: 170.0 ± 9.15 g
Group mean bodyweight (g ± sd) on Day: −3 [3, 5]: 160.0 ± 9.82 g
Group mean bodyweight (g ± sd) on Day: −4 [3, 5]: 152.7 ± 9.09 g
Group mean bodyweight (g ± sd) on Day: −5 [3, 5]: 133.2 ± 9.21 g
Group mean water consumption (g ± sd) between Days: 1–2 (male Wistar rats [4]; 7.5 mg/kg single oral dose): 34.1 ± 3.60 g
Group mean water consumption (g ± sd) between Days: 2–3 (male Wistar rats [4]; 7.5 mg/kg single oral dose): 37.2 ± 1.48 g
Group mean water consumption (g ± sd) between Days: 3–4 (male Wistar rats [4]; 7.5 mg/kg single oral dose): 36.7 ± 3.92 g
Group mean water consumption (g ± sd) between Days: 4–5 (male Wistar rats [4]; 7.5 mg/kg single oral dose): 33.8 ± 2.89 g
Group mean water consumption (g ± sd) between Days: 5–6 (male Wistar rats [4]; 7.5 mg/kg single oral dose): 33.7 ± 5.43 g
Group mean water consumption (g ± sd) between Days: 6–7 (male Wistar rats [4]; 7.5 mg/kg single oral dose): 32.1 ± 1.93 g
Group mean water consumption (g ± sd) between Days: 7–8 (male Wistar rats [4]; 7.5 mg/kg single oral dose): 33.6 ± 2.50 g
effects on water consumption (male Wistar rats [4]; 7.5 mg/kg single oral dose): No statistically significant effects
Group mean water consumption (g ± sd) between Days: −2–−1 (male Wistar rats [4]; [5]): 31.6 ± 2.80 g
Group mean water consumption (g ± sd) between Days: −3–−2 (male Wistar rats [4]; [5]): 30.9 ± 2.12 g
Group mean water consumption (g ± sd) between Days: −4–−3 (male Wistar rats [4]; [5]): 34.7 ± 3.73 g
Group mean water consumption (g ± sd) between Days: −5–−4 (male Wistar rats [4]; [5]): 35.5 ± 7.49 g
Group mean water consumption (g ± sd) between Days: −6–−5 (male Wistar rats [4]; [5]): 47.0 ± 5.3 g
